From US12551471B2, “ABT-751 and ionizing radiation” (Stichting Het Nederlands Kanker Instituut-Antoni van …, priority 2020, dated 2026)
Entries after “also recorded” stand apart in the source; their conditions may differ.

Assays:
[1] = test system: GSC457 tumors and healthy surrounding brain tissue; assay: Immunohistochemistry for DNA damage and apoptosis markers, on-treatment samples, orthotopic GSC457 tumors; type: in vivo, mice; details: ABT-751 prior to radiotherapy
[2] = test system: tumor cells from various origins; assay: Clonogenic assays with ionizing radiation (radiosensitization); type: cell-based
Experimental: Using clonogenic assays, we confirmed that induction of mitotic enrichment by ABT-751 radiosensitizes tumor cells from various origins. To achieve induction of mitotic enrichment, we exposed cells to 1 μM of ABT-751 for 6 hours, at which time we exposed cells to a dose range of ionizing radiation (FIG. 4A). Directly after irradiation, we washed ABT-751 away and waited for 18 hours before the process was repeated. In total, the process of induction of mitotic enrichment and subsequent irradiation was repeated 4 times to resemble a clinical hyperfractionation schedule. After the last fraction, cells were left to grow out into viable colonies and clonogenic potential was quantified. […] In the first set-up, we irradiated cells prior to exposure to ABT-751 (FIG. 5A). In the second approach, we irradiated cells prematurely after only 1 hour of exposure to ABT-751 while maintaining the total exposure time of ABT-751 at 6 hours (FIG. 5B).

[3] = test system: GBM8 tumors; assay: Radiosensitization efficacy study, orthotopic GBM8 model; type: in vivo, mice
Experimental: (§1) Mice bearing these GBM8 tumors were stratified between 5 treatment arms: • 1. Control treatment, • 2. 100 mg/kg daily ABT-751 for 4 days/week for 6 consecutive weeks • 3. 4 1 Gy of ionizing radiotherapy (RT) for 4 days/week for 6 consecutive weeks • 4. ABT-751 given 6 hours prior to RT for 4 days/week for 6 consecutive weeks • 5. RT administered prior to ABT-751 for 4 days/week for 6 consecutive weeks
(§2) The growth of these tumors could be followed up using bioluminescence imaging.

[4] = test system: GSC457 tumors; assay: Radiosensitization efficacy study, orthotopic GSC457 tumors; type: in vivo, mice; details: 4 weeks
Experimental: as §1, with “The first model is described above and was also used to study the […] relationship in FIGS. 7-9. Mice” for “Mice”, “these GSC457” for “these GBM8”, “2. 50” for “2. 100”, “for 4” for “for 6”, “4” for “4 1”
as §2

[5] = Animal weights throughout efficacy studies; type: in vivo; details: mice bearing orthotopic GSC457, U87 or GBM8 tumors
Text: Finally, to investigate whether the mitotic enrichment strategy using ABT-751 induced toxicity in healthy tissues we studied several parameters.

[6] = test system: U87 human brain cancer cell line; assay: Radiosensitization efficacy study, orthotopic U87 model; type: in vivo, mice
Text: This U87 model is more intrinsically radiosensitive and was therefore irradiated with fractions of 1 Gy instead of 4 Gy as used above.

[7] = Plasma and brain concentration after oral administration (LC-MS/MS); type: in vivo; details: mice, oral 50 mg/kg
Experimental: In order to facilitate the in vivo translation of the radiosensitization approach, we first established the dose level that achieved clinically relevant plasma concentrations in mice. Using a validate LC-MS/MS method, we measured the plasma concentration—time curve in mice following oral administration of 50 mg/kg ABT-751 in formulation containing DMSO:Cremophor EL:H2O (1:1:8).

[8] = test system: various cancer cell lines; assay: Cell survival assay; type: cell-based; details: 1 μM ABT-751, up to 10 hours of exposure
Text: Importantly, induction of mitotic enrichment could be achieved without inducing cytotoxicity.

[9] = test system: cancer cell lines of various origins (brain, colorectal, prostate, head & neck and cervical cancer); assay: Flow cytometric cell cycle analysis (propidium iodide and phospho-histone H3 staining); type: cell-based
Experimental: We first studied whether ABT-751 increases the mitotic population of cancer cell lines (FIG. 1). Several lines of various origins—brain, colorectal, prostate, head & neck and cervical cancer—were exposed to a dose range of ABT-751 and incubated for 6 hours, after which the cell cycle was analyzed by flow cytometry. […] This analysis confirmed that ABT-751 dose-dependently increases the mitotic population of cancer cell lines at the expense of the relatively radio-resistant G1 population. […] This shift in cell cycle distribution will hereafter be referred to as induction of mitotic enrichment. […] Importantly, the G2 phase of the cell cycle is unaffected. […] In the first set-up, we irradiated cells prior to exposure to ABT-751 (FIG. 5A). In the second approach, we irradiated cells prematurely after only 1 hour of exposure to ABT-751 while maintaining the total exposure time of ABT-751 at 6 hours (FIG. 5B).

[10] = test system: GSC457 brain cancer cells; assay: Mitotic enrichment (p-H3 immunohistochemistry) in orthotopic GSC457 brain tumors; type: in vivo, mice
Experimental: To study the pharmacokinetic-pharmacodynamic relationship of ABT-751 in vivo, we made use of a genetically engineered mouse model-derived brain cancer model that was previously established in our lab. We implanted these GSC457 brain cancer cells in the brains of recipient mice and followed up their growth using bioluminescence imaging. When full-blown tumors had established, we treated tumor-bearing mice with different doses of ABT-751 and collected their brains 6 hours or 24 hours after administration. […] We next aimed to confirm whether repeated induction of mitotic enrichment was feasible and efficient in vivo. Using the same murine brain cancer model as described above, we quantified the number of mitotic cells in tumors 6 hours after administration of one dose of 50 mg/kg of ABT-751 and compared the levels to those in tumors 6 hours after receiving a second administration of 50 mg/kg of ABT-751 either 24 or 48 hours after the first administration. We again confirmed that mitotic enrichment can efficiently be induced by ABT-751 in brain cancer in vivo (FIG. 8). […] In the clinic, the standard-of-care for glioblastoma—the most common and aggressive adult brain cancer—involves ionizing radiation and concomitant alkylating chemotherapy using temozolomide. Therefore, we next confirmed that induction of mitotic enrichment in vivo using ABT-751 is compatible with chemo-radiotherapy.

[11] = healthy surrounding brain tissue
[12] = cells irradiated prior to exposure to ABT-751
[13] = ABT-751 6 hours prior to RT, versus radiotherapy
[14] = ABT-751 alone, 100 mg/kg daily, 4 days/week, 6 weeks
[15] = dose range of ABT-751, incubated for 6 hours
[16] = two brain cancer cell lines, 1 μM for up to 8 hours, washed away, followed until 48 hours

For `COc1ccc(S(=O)(=O)Nc2cccnc2Nc2ccc(O)cc2)cc1` [ABT-751, N-[2-(4-hydroxyanilino)-3-pyridinyl]-4-methoxybenzenesulfonamide], the “DNA damage (yH2A.X)” value [1, 11] was “did not increase DNA damage (yH2A.X)”, the “apoptosis (cleaved-Caspase 3)” value [1, 11] was “did not increase” and the apoptosis ([1]; in the tumor, compared to radiotherapy alone) was “did strongly increase apoptosis specifically in the tumor compared to radiotherapy alone”. The “clonogenic potential (radiosensitization)” value (“clonogenic potential” below) ([2]; 1 μM ABT-751 for 6 hours before ionizing radiation, repeated 4 times) was “radiosensitizes cancer cells of various origins”, the “clonogenic potential” value ([2]; cells irradiated after only 1 hour of exposure, total exposure 6 hours) was “In neither of the sequences radiosensitizing effects of ABT-751 were observed” and the “clonogenic potential” value [2, 12] was “In neither of the sequences radiosensitizing effects of ABT-751 were observed”. The survival [3, 13] was “extended survival”, the tumor growth [3, 13] was “further slowed down tumor growth” and the “efficacy (tumor growth, survival)” value ([3]; ABT-751 administered after radiotherapy) was “Increased efficacy could not be observed”. The survival [3, 14] was “did not affect”, the tumor growth [3, 14] was “did not affect tumor growth” and the “effect of RT on tumor growth and mouse survival” value ([4]; 50 mg/kg ABT-751 6 hours prior to 4 Gy RT, 4 days/week) was “could be enhanced by given ABT-751 6 hours prior to every fraction of radiotherapy”. For the same compound, the radiosensitizing effect ([4]; RT administered prior to ABT-751, 4 days/week) was “a similar radiosensitizing effect could not be observed”, the weight of mice [5] was “no treatment-related weight loss” and the survival benefit ([6]; ABT-751 6 hours prior to RT, fractions of 1 Gy) was “doubled the survival benefit that was achieved by RT alone”. The survival benefit ([6]; ABT-751 administered after RT) was “did not achieve a survival benefit”, the “concentration in the brain” value ([7]; 8 hours after administration, 50 mg/kg) was “still in the range of the concentration that is sufficient to induce mitotic enrichment in vitro; also recorded: supersede the concentration required to achieve mitotic enrichment in vitro for up to 8 hours” and the plasma concentration ([7]; DMSO:Cremophor EL:H2O (1:1:8)) was “in the range of those achieved in patients at a clinically safe dose levels for up to 8 hours”. The “viability (cytotoxicity)” value [8] was “No loss of viability was observed up to 10 hours of exposure”, the mitotic enrichment [9, 12] was “could not induce mitotic enrichment when cells were irradiated prior to exposure” and the “G1 cells (DNA 2N, pHH3-)” value [9, 15] was “at the expense of G1 cells”. The “S phase cells (DNA 2N-4N, pHH3-)” value [9, 15] was “stay unaffected”, the “amount of G2 cells (DNA 4N, pHH3-)” value [9, 15] was “appears to increase slightly” and the “percentage of mitotic cells (DNA 4N, pHH3+)” value [9, 15] was “dose-dependently increases the percentage of mitotic cells”. The “G2 phase of the cell cycle” value [9, 16] was “unaffected”, the “mitotic population over time and after wash-out (reversibility)” value [9, 16] was “induces a time-dependent increase of the mitotic population that reverts back to pre-exposure levels after the drug is removed” and the “concentration at which maximum achievable mitotic enrichment was achieved” value ([9]; within 6 hours, all cell lines tested) was 1 µM. For the same compound, the mitotic population ([10]; all doses, 24 hours after administration) was “reverted to baseline levels”, the “mitotic enrichment in brain tumors (p-H3 staining)” value ([10]; different doses, brains collected 6 hours after administration) was “dose-dependently induced mitotic enrichment in brain tumors in vivo” and the mitotic enrichment ([10]; given concomitantly with chemo-radiotherapy involving temozolomide) was “can induce mitotic enrichment”. The mitotic enrichment ([10]; given concomitantly with radiotherapy alone) was “can induce mitotic enrichment”, the “doses achieving the most clear increases in mitotic enrichment” value ([10]; p-H3 staining, GSC457 tumors) was at least 50 mg/kg and the “repeated induction of mitotic enrichment” value ([10]; second 50 mg/kg dose 24 or 48 hours after the first, 6 hours after administration) was “feasible without loss of efficiency when a waiting period of 24 hours or longer is observed between subsequent doses”.
